Reference: patent US20230357765A1, “USE OF LONG NON-CODING RNAS IN MEDULLOBLASTOMA” (THE JOHNS HOPKINS UNIVERSITY, priority 2020, published 2023)
l = locked nucleic acid (LNA); d = 2'-deoxy (DNA)

What was measured:
[1] = system: D425 Med and MED211 MB cells; assay: Cell proliferation assay, living cells counted by trypan blue staining; format: cell-based, human
Description: (§1) Cell Culture. Cell lines were authenticated using single tandem repeat profiling. D425 Med cells were cultured in DMEM/ F12 with 10% serum and 1% glutamate/penicillin/streptomycin. MED211 cells were cultured in medium composed of 30% Ham’s F12/70% DMEM, 1% antibiotic antimycotic, 20% B27 supplement, 5 µg/mL heparin, 20 ng/mL epidermal growth factor (EGF), and 20 ng/mL fibroblast growth factor 2. DAOY cells were cultured in DMEM with 10% serum and 1% glutamate/penicillin/streptomycin. All cells were grown in a humidified incubator at 37° C., 5% CO2. For blocking of bromodomain and extraterminal domain family (BET) bromodomain protein in D425 Med and MED211 cells, Jun Qi 1 (JQ1) (SML1524-5MG, Sigma Aldrich) was added, and the medium was changed every other day.
Cell Proliferation, Apoptosis, and 3D Colony Formation Assays. Cells were plated in 96-well plates at 5 × 10^3 cells per well in triplicate. After 72 hours of ASO or siRNA transfection, living cells were counted by trypan blue staining. Apoptotic cells were analyzed using a GloMax luminometer (Promega) with conditions optimized for the Caspase-Glo 3/7 Assay. […] Colony number was determined using the EVE cell counter (Nano Entek), and staining intensity was analyzed using ImageJ software.

lnc-HLX-2-7 [2] = assay: lnc-HLX-2-7 expression in JQ1-treated cells, qRT-PCR; format: cell-based, human; conditions: D425 Med and MED211 cells; JQ1 100 or 300 nM; relative to DMSO
Description: as §1
(§2) Quantitative Real-Time PCR. Total RNA was purified using the Direct-zol RNA Miniprep kit (Zymo Research). To obtain RNA from xenografts, tumor tissues were pulverized and then used for purification. Quantitative PCR was carried out using SYBR Green mRNA assays as previously described.^8 Primer sequences are listed in Tables 8-9 and Supplementary Table 2 (available online).
(§3) JQ1 Regulates lnc-HLX-2-7via MYC. […] In addition, downregulation of lnc-HLX-2-7 by JQ1 was also confirmed in vivo (FIGS. 10).

MYC = MYC expression in JQ1-treated cells, qRT-PCR; format: cell-based, human; conditions: D425 Med and MED211 cells; JQ1 100 or 300 nM; relative to DMSO
Description: as §1, §2, §3

[3] = system: D425 Med and MED211 intracranial xenografts; assay: Intracranial MB xenografts treated with JQ1, bioluminescence imaging and qPCR of tumors; format: in vivo, NOD-SCID mice; conditions: JQ1 50 mg/kg intraperitoneal on alternating days for 14 days; versus DMSO
Description: FIGS. 10A-10C. JQ1 regulates lnc-HLX-2-7 via MYC in vivo. (FIG. 10A) D425 Med and MED211 cells expressing luciferase were implanted into the […] of NOD-SCID mice. Seven days after injection, mice were administered DMSO or JQ1. Tumor formation was assessed by bioluminescence imaging. Changes in bioluminescent signal were examined weekly after tumor implantation. (FIG. 10B) Quantification of total photon counts from mice treated with JQ1 or DMSO. n=4, *p<0.05, Student’s t-test. (FIG. 10C) Expression levels of MYC and lnc-HLX-2-7 were examined by qPCR in DMSO or JQ1-treated mouse xenografts. Relative expression levels compared to those in the DMSO-treated tumor are indicated on the y-axis (n=4). Error bars indicate s.e.m. n=4, *p<0.01, Student’s t-test.
Medulloblastoma Xenografts (Intracranial). All mouse studies were approved and performed in accordance with the policies and regulations of the Animal Care and Use Committee of Johns Hopkins University. Intracranial MB xenografts were established by injecting D425 Med cells, MED211 cells, D425 Med cells with lnc- HLX-2-7 deleted, and MED211 cells with lnc-HLX-2-7 deleted into the cerebellums of NOD-SCID mice (Jackson Laboratory). […] Tumor growth was evaluated by weekly bioluminescence imaging using an in vivo spectral imaging system (IVIS Lumina II, Xenogen).

[4] = system: D425 Med and MED211 MB cells; assay: Apoptosis assay (Caspase-Glo 3/7); format: cell-based, human; conditions: 72 hours after ASO transfection, P < 0.01
Description: Cell Proliferation, Apoptosis, and 3D Colony Formation Assays. Cells were plated in 96-well plates at 5 × 10^3 cells per well in triplicate. After 72 hours of ASO or siRNA transfection, living cells were counted by trypan blue staining. Apoptotic cells were analyzed using a GloMax luminometer (Promega) with conditions optimized for the Caspase-Glo 3/7 Assay. For the 3D colony formation assay, cells were seeded in 24-well plates at a density of 1 × 10^2 cells/well and were stained with crystal violet solution approximately 14 days later. Colony number was determined using the EVE cell counter (Nano Entek), and staining intensity was analyzed using ImageJ software.

HLX = HLX expression after ASO treatment, qRT-PCR; format: cell-based, human; conditions: D425 Med and MED211 cells treated with ASO
Text: FIG. 8. lnc-HLX-2-7regulates the expression of HLX coding gene. Expression levels of HLX in D425 Med and MED211 cells treated with ASO against the indicated genes in the x-axis. Relative expression level to mock is indicated in the y-axis. *p<0.01, Kruskal-Wallis analysis.
as §2
(§4) Antisense Oligonucleotides. Lnc-HLX-2-7 Antisense oligonucleotides (ASOs) were designed using the Integrated DNA Technologies (IDT) Antisense Design Tool (IDT). ASO knockdowns were performed with 50 nM (final concentration) locked nucleic acid (LNA) GapmeRs transfected with Lipofectamine 3000 (Thermo Fisher Scientific). All ASOs were modified with phosphorothioate (PS) linkages.

lnc-HLX-2-7 [5] = assay: ASO knockdown of lnc-HLX-2-7, expression by qRT-PCR; format: cell-based, human; conditions: D425 Med and MED211 cells; 50 nM ASO, Lipofectamine 3000; compared with ASO-Luc; P < 0.01
Description: FIGS. 48A-48C. Confirmation of ASO design and knockdown effect of lnc-HLX-2-7. (FIG. 48A) Diagram showing the sites targeted by each ASO. (FIGS. 48B-48C) Expression level of lnc-HLX-2-7in D425 Med (FIG. 48B) and MED211 (FIG. 48C) cells treated with ASO against the indicated genes on the x-axis. ASOs were transfected at 50 nM for 72 h using Lipofectamine 3000 (Thermo Fisher Scientific, Waltham MA). The efficiency was determined by qRT-PCR. Relative expression level to luciferase (Luc) gene is indicated on the y-axis. *p<0.01, Kruskal-Wallis analysis.
as §2
as §4, with “linkages. […]” for “linkages.”

| Compound | cell growth (viable cell numbers) with JQ1 ([1]; effect suppressed by overexpression of lnc-HLX-2-7 (pcDNA4-lnc-HLX-2-7)) | lnc-HLX-2-7 expression (lnc-HLX-2-7 [2]) | MYC expression (MYC) | lnc-HLX-2-7 expression in xenograft tumors [3] | MB cell growth (viable cell numbers) ([1]; 72 hours after ASO transfection, P < 0.01) | apoptosis (apoptotic cell numbers) [4] | HLX expression (HLX) | lnc-HLX-2-7 expression (lnc-HLX-2-7 [5]) |
| --- | --- | --- | --- | --- | --- | --- | --- | --- |
| Cc1sc2c(c1C)C(c1ccc(Cl)cc1)=N[C@@H](CC(=O)OC(C)(C)C)c1nnc(C)n1-2 [JQ1, Jun Qi 1 (JQ1)] | cell growth inhibition | downregulated | downregulated | downregulation |  |  |  |  |
| +T^∗+G^∗+A^∗G^∗A^∗G^∗A^∗T^∗T^∗A^∗A^∗T^∗C^∗T^∗A^∗G^∗A^∗T^∗+T^∗+G^∗+C (TGAGAGATTAATCTAGATTGC; sugars from the 5' end l3 d15 l3, all phosphorothioate, methylation of C not given here) [ASO-lnc-HLX-2-7] |  |  |  |  | significantly suppressed | induced apoptosis | significantly reduced | significantly decreased |
